We go through 21 compounds from ChEMBL document CHEMBL4402552, “The Discovery of 7-Methyl-2-[(7-methyl[1,2,4]triazolo[1,5-a]pyridin-6-yl)amino]-9-(tetrahydro-2H-pyran-4-yl)-7,9-dihydro-8H-purin-8-one (AZD7648), a Potent and Selective DNA-Dependent Protein Kinase (DNA-PK) Inhibitor” (J Med Chem, 2020).

What is called logD is the decadic logarithm of the distribution of all forms, ionised or not, between an organic phase and buffer at a given pH. Broadly, the Papp A→B is how fast a substance crosses the layer from the apical side. The term microsomal CLint denotes the capacity of the preparation to metabolise the compound, expressed as a volume cleared per time. A higher microsomal CLint goes with rapid turnover. As a reminder, the pKa is the pH at which an ionisable group is half protonated. Low values mean a stronger acid or weaker base, high ones a weaker acid or stronger base. The term solubility (thermodynamic) denotes the concentration in solution at equilibrium with solid.

Data set [1] can be described thus: Drug level in mouse hepatocytes treated with 9-(trans-4-Hydroxycyclohexyl)-2-[(4-methoxy-2-methylphenyl)amino]-7-methyl-7,9-dihydro-8H-purin-8-one assessed as compound formation at 5 uM measured after 60 mins by UV-MS analysis. It is filed as ADME, cell-based, Hepatocyte. As to conditions: 1 h.
Data set [2] in a line: Drug level in rat hepatocytes treated with 9-(trans-4-Hydroxycyclohexyl)-2-[(4-methoxy-2-methylphenyl)amino]-7-methyl-7,9-dihydro-8H-purin-8-one assessed as compound formation at 5 uM measured after 60 mins by UV-MS analysis. As to conditions: 1 h. Format: ADME, cell-based, Hepatocyte.
A short description of data set [3]: physchem. Particulars: buffer, pH 7.4.
Data set [4] is described as follows: Apparent permeability across apical to basolateral side in human Caco2 cells in absence of efflux inhibitor by ABBA assay. It is filed as ADME, cell-based. As to conditions: Caco-2.
Data set [5] in a line: Intrinsic clearance in human microsomes. It is filed as ADME, Microsome.
Data set [6] is described as follows: Dissociation constant, pKa of the compound. Format: physicochemical.
Data set [7] can be described thus: Drug metabolism in mouse hepatocytes assessed as dealkylation and oxidation by measuring iminoquinone formation at 5 uM measured after 60 mins by UV-MS analysis. Format: ADME, cell-based, Hepatocyte. Particulars: 1 h.
Data set [8] in a line: Drug metabolism in mouse hepatocytes assessed as dealkylation at 5 uM measured after 60 mins by UV-MS analysis. It is filed as ADME, cell-based, Hepatocyte. Particulars: 1 h.
Data set [9] in a line: Drug metabolism in human hepatocytes assessed as dealkylation at 5 uM measured after 60 mins by UV-MS analysis. It is filed as ADME, cell-based, Hepatocyte. As to conditions: 1 h.
Data set [10] is described as follows: Drug metabolism in rat hepatocytes assessed as dealkylation and oxidation by measuring iminoquinone formation at 5 uM measured after 60 mins by UV-MS analysis. It is filed as ADME, cell-based, Hepatocyte. As to conditions: 1 h.
A short description of data set [11]: Drug metabolism in rat hepatocytes assessed as dealkylation at 5 uM measured after 60 mins by UV-MS analysis. Particulars: 1 h. It is filed as ADME, cell-based, Hepatocyte.
Data set [12] can be described thus: Volume of distribution at steady state in Beagle dog at 1 mg/kg, iv or 2 mg/kg, po. It is filed as ADME, organism-based, Canis lupus familiaris. Particulars: in vivo, read-out: Vdss.
Data set [13] in a line: Oral bioavailability in Han Wistar rat at 5 mg/kg. Format: ADME, organism-based. As to conditions: in vivo.
Data set [14] is described as follows: Cmax in ATM knock out human FADU cells xenografted SCID mouse at 100 mg/kg, po qd measured after 2 hrs. Format: ADME, organism-based. As to conditions: in vivo, read-out: T>IC50. In general terms: A xenograft is tissue or cells of one species grown in another, often human tumour cells in immunodeficient mice.
Data set [15] in a line: Solubility of the compound in simulated gastric fluid using crystalline sample. It is filed as physicochemical.
Data set [16] is described as follows: Time at which plasma concentration stays above in vitro IC50 for inhibition of DNA-PK in human A549 cells in SCID mouse at 100 mg/kg, po qd. It is filed as organism-based. As to conditions: in vivo.
Data set [17] can be described thus: Oral bioavailability in Beagle dog at 2 mg/kg. It is filed as ADME, organism-based, Canis lupus familiaris. Particulars: in vivo.
The nature of data set [18]: Volume of distribution at steady state in Han Wistar rat at 2 mg/kg, iv or 5 mg/kg, po. Format: ADME, organism-based. Particulars: in vivo, read-out: Vdss.
Data set [19] in a line: Solubility of the compound in fasted state simulated intestinal fluid using crystalline sample. Format: physicochemical.
Data set [20] can be described thus: Free plasma concentration in SCID mouse at 100 mg/kg, po qd measured after 10 hrs. It is filed as ADME, organism-based. As to conditions: in vivo.

Converted amounts (≈) assume the structure as drawn.

On to `NC1=C(C(=O)c2ccccc2)/C(=N/c2ccccc2C(=O)c2ccccc2)C=CC1=O`, for which the Drug uptake result in data set [1] and in data set [2] was “Metabolite_Detected” in each case.
In data set [3], `COc1ccc(Nc2ncc3c(n2)n(C2CCCCC2)c(=O)n3C)c(C)c1` showed a logD of 4.1.
For the compound `Cc1cc2ncnn2cc1Nc1ncc2c(n1)n([C@H]1CC[C@H](O)CC1)c(=O)n2C`, in [3], the logD came to 1.3. For the same compound, the Papp A→B in data set [4] was 0.4 ×10⁻⁶ cm/s.
As for `Cc1ccccc1Nc1ncc2c(n1)n([C@H]1CC[C@H](O)CC1)c(=O)n2C`, the logD in [3] came out at 2.5.
Compound `Cc1cc2ncnn2cc1Nc1ncc2c(n1)n(C1CCC(F)(F)CC1)c(=O)n2C` gave a logD in data set [3] of 2. Also, the microsomal CLint in data set [5] was 68 µL/min/mg. In addition, the Papp A→B in [4] turned out to be 23 ×10⁻⁶ cm/s.
In data set [3], `COc1ccc(Nc2ncc3c(n2)n(-c2ccccc2)c(=O)n3C)c(C)c1` had a logD of 2.8.
Still for that read-out and setting: to `Cn1c(=O)n([C@H]2CC[C@H](O)CC2)c2nc(Nc3ccccc3)ncc21` belongs 2.4; to `COc1ccc(Nc2ncc3[nH]c(=O)n([C@H]4CC[C@H](O)CC4)c3n2)c(C)c1`, 2.3; to `COc1ccc(Nc2ncc3c(n2)n([C@H]2CC[C@H](O)CC2)c(=O)n3C)cc1`, 2.3.
Compound `COc1ccc(C)c(Nc2ncc3c(n2)n([C@H]2CC[C@H](O)CC2)c(=O)n3C)c1` showed a logD in data set [3] of 2.6.
In [6], `Cc1cc2nccn2cc1Nc1ncc2c(n1)n(C1CCOCC1)c(=O)n2C` yielded a pKa of 7.1. In addition, the Papp A→B in data set [4] was 11 ×10⁻⁶ cm/s.
`COc1ccc(Nc2ncc3c(n2)n(C2CCCC2)c(=O)n3C)c(C)c1`: the logD in data set [3] turned out to be 3.7.
Compound `Cc1cc2ncnn2cc1Nc1ncc2c(n1)n([C@H]1CC[C@@](C)(O)CC1)c(=O)n2C` displayed a logD in data set [3] of 1.9. For the same compound, in data set [6], the pKa is 3.6. The Papp A→B in data set [4] worked out at 24 ×10⁻⁶ cm/s.
Consider `Cc1c(Nc2ncc3c(n2)n([C@H]2CC[C@H](O)CC2)c(=O)n3C)ccc2nccn12`, for which the logD in data set [3] was 1.2.
Same read-out and setting: to `Cn1c(=O)n([C@H]2CC[C@H](O)CC2)c2nc(Nc3ccc4nccn4c3)ncc21` belongs 1.8.
`Cc1cc2nccn2cc1Nc1ncc2c(n1)n([C@H]1CC[C@H](O)CC1)c(=O)n2C`: the logD in data set [3] came out at 1.4. Besides, in data set [4], the Papp A→B is 0.4 ×10⁻⁶ cm/s.
Turning to `COc1ccc(Nc2ncc3c(n2)n([C@H]2CC[C@H](O)CC2)c(=O)n3C)c(C)c1`, the Drug metabolism entry in [7], in [8], in data set [9], in data set [10] and in data set [11] was “Metabolite_Detected” each time. The compound further had a logD in [3] of 2.3. The microsomal CLint in data set [5] is 49 µL/min/mg.
For the compound `Cc1cc2ncnn2cc1Nc1ncc2c(n1)n(C1CCCCC1)c(=O)n2C`, in [3], the logD is 3.1. This compound also gave a microsomal CLint in [5] of 93 µL/min/mg. Moreover, the Papp A→B in data set [4] is 24 ×10⁻⁶ cm/s.
For the compound `Cc1cc2ncnn2cc1Nc1ncc2c(n1)n([C@H]1CC[C@](C)(O)CC1)c(=O)n2C`, in [3], the logD was found to be 1.1. In addition, in [4], the Papp A→B amounted to 0.7 ×10⁻⁶ cm/s.
Compound `Cn1c(=O)n([C@H]2CC[C@H](O)CC2)c2nc(Nc3ccc4ncnn4c3)ncc21` returned a logD in data set [3] of 1.7.
For the compound `Cc1cc2ncnn2cc1Nc1ncc2c(n1)n(C1CCOCC1)c(=O)n2C` [AZD-7648], the Vd in data set [12] was 0.7 L/kg; in [18], 1.4 L/kg. The bioavailability in data set [13] was 104%; in data set [17] it was 93%. In addition, in [14], the Cmax is 17 µM. Moreover, the solubility (thermodynamic) in data set [15] was greater than 10000 µM; in [19], 180 µM (≈ 68.5 µg/mL). This compound also returned a logD in [3] of 1.3. Further, the Time in [16] was greater than 12 h. Besides, the pKa in data set [6] is 3.4. Further, the apical-to-basolateral permeability (Papp A→B) in data set [4] was found to be 22 ×10⁻⁶ cm/s. The “Cp(f)” value in [20] was greater than 1 µM.
